Values of other authors, collected in patent US20050065127A1, “2-Alkylidene-19-nor-vitamin D derivatives for the treatment of osteosarcoma” (Pfizer Inc., priority 2003, published 2005).

System: serum calcium (bone calcium mobilization)
Settings: chronic mode, 7 days, rats; 20S compound at 130 pmol/day

In the case of `C=C1[C@H](O)CC(=C/C=C2\CCC[C@]3(C)[C@@H]([C@H](C)CCCC(C)(C)O)CC[C@@H]23)C[C@H]1O` [2-Methylene-19-Nor-1,25-(OH)2D3, 1α,25-dihydroxy-2-methylene-19-nor-vitamin D3], the “Bone calcium mobilization activity (serum calcium) relative to 1,25-(OH)2D3” value is given as 10-100 times.
